The test has as its system K98450-129-R-PDC complex spheroid growth, percent test/control. Briefly: Anticancer human tumor K98450-129-R-PDC patient-derived colon adenocarcinoma cell line growth inhibition [RAS]. The note with it: for viability, T/C: stronger effect = lower value. From the text:
RAS pathway inhibitors in Combinations in Complex Spheroids
A high-throughput screen of multi-cell type tumor spheroids was designed to identify active combinations of RAS pathway inhibitors and targeted small molecules. Complex spheroids include a stromal component modeled by human endothelial cells (HUVEC) and fibroblasts modeled by human mesenchymal stem cells (MSCs). The concentration ranges selected for each drug and investigational agent were based upon clinically achievable concentrations if the clinical Cmax of the agent was known.
Compounds. The drugs and investigational agents: abemaciclib (NSC768073), cobimetinib (NSC768068), divarasib (GDC6063, NSC841802), docetaxel (NSC628503), GDC-1971 (RLY-1971, NSC841576), gemcitabine (NSC613327), inavolisib (NSC800729), ipatasertib (NSC767898), KB-0742 (NSC834161), MRTX-1133 (NSC836407), osimertinib (NSC779217), RMC-4630 (NSC839698), RMC-6236 (NSC851965), RMC-6291 (NSC852671), Ro-3306 (NSC812927), sapanisertib (NSC764658), SN-38 (NSC673596), staurosporine (NSC755774), SY5609 (NSC837396), and tovorafenib (DAY101, NSC766906), were obtained from the National Cancer Institute (NCI) Developmental Therapeutics Program Chemical Repository. The FDA-approved anticancer drug set is available from the NCI Developmental Therapeutics Program. […] The stock solutions were prepared in dimethyl sulfoxide (DMSO, Sigma-Aldrich, St. Louis, MO, cat. D2650) at 800-fold the tested concentration and stored at -70 degrees C prior to their use. All drugs and investigational agents were tested over a range starting from a high concentration at or near the clinical Cmax and decreasing in half-log increments. If the clinical Cmax for an agent had not been determined, the highest concentration tested was 10 microM.
Cell Culture. All cells were maintained in an incubator at 37 degrees C and 5% CO2 with 95% humidity. The PDC lines were cultured according to standard operating procedures established by the NCI PDMR. All PDCs were thawed and cultured in Matrigel-coated flasks prepared with a working solution of 1X Ham's F-12 nutrient mix, without supplementation (Invitrogen, Waltham, MA, cat. 11765054), 100 U/mL penicillin-streptomycin (Invitrogen, cat. 15140122), and 2.5% Matrigel (Corning Inc., Corning, NY, cat. 354248) for the first three passages. The 362531-283-R-J2-PDC and 782815-120-R-J1-PDC lines were cultured in 6C/Colon 1B media, which includes advanced DMEM/F-12 (Thermo Fisher Scientific, cat. 12634028), 10 mM HEPES (Thermo Fisher Scientific, cat. 15630080), 1X GlutaMAX supplement (Thermo Fisher Scientific, cat. 35050061), 0.1 mg/mL primocin (InvivoGen, San Diego, CA, cat. ant-pm-2), 10% defined fetal bovine serum, heat inactivated (HyClone Laboratories Inc., Logan, UT, cat. SH30070.03HI), 50% L-WRN conditioned media (ATCC, cat. CRL-3276), 1.25 mM N-Acetyl-L-cysteine (Sigma-Aldrich, cat. A9165), 10 mM nicotinamide (Sigma-Aldrich, cat. N0636), 1X B-27 supplement (Thermo Fisher Scientific, cat. 17504044), 1X N-2 supplement (Thermo Fisher Scientific, cat. 17502048), 50 ng/mL human EGF (Thermo Fisher Scientific, cat. PHG0311), and 10 microM Y-27632 dihydrochloride (Tocris Bioscience, cat. 1254). The K12877-001-R-J1-PDC line was cultured in 6I media, which includes all 6C/Colon 1B media plus 10 ng/mL human FGF-10 (PeproTech, cat. 100-26), 1 ng/mL human FGF-2 (PeproTech, cat. 100-18B), 1 µM prostaglandin E2 (Tocris Bioscience, cat. 2296), […] hydrocortisone (Sigma-Aldrich, cat. H4001), and […] bovine insulin (Sigma-Aldrich, cat. I6634). The K86415-001-R-J1-PDC line was cultured in 6D media, which includes all 6C/Colon 1B media components minus the L-WRN conditioned media. The 485176-168-R4-J1-PDC was cultured in PANC media, which includes all 6C/Colon 1B media plus 100 ng/mL human FGF-10 (PeproTech, cat. 100-26), 500 nM SB-431542 (Selleckchem, cat. S1067), and 10 nM gastrin (Tocris Bioscience, cat. 3006). […]

SMILES strings stand for the structures. pIC50: −log10 of the molar value. “And” between values parts separate entries of the source, which are not always exact repeats. Equal values may be shown once.

The term viability, T/C denotes the result in the treated group divided by that in the control group, in per cent. What is called IC50 is the concentration that inhibits the measured activity by half. For orientation: pIC50 means the negative decadic logarithm of the IC50, by convention in mol/L.
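Note: spheroids exposed to agents for seven days before the viability readout.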
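Throughout, for viability, T/C: luminescence used as a proxy for viable cell amount.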

`C=CC(=O)N1CCN(c2nc(OCC3CCCN3C)nc3c(F)c(-c4nc(N)cc(C)c4C(F)(F)F)c(Cl)cc23)C(C)C1` (centres undefined): the viability, T/C by setting is: (compound 0.00316 µM) 97.9% [middle of 12 runs]; (compound 0.01 µM, compound 0.0316 µM) 70.9%; (compound 0.01 µM, compound 0.1 µM) 59.3%; (compound 0.01 µM, compound 0.316 µM) 39.6%; (compound 0.01 µM, compound 1 µM) 29%; (compound 0.0316 µM, compound 0.00316 µM) 71.2%. In addition, the viability, T/C reads like this: (compound 0.0316 µM, compound 0.01 µM) 65.5%; (compound 0.0316 µM, compound 0.1 µM) 51.4%; (compound 0.0316 µM, compound 0.316 µM) 42.2%; (compound 0.0316 µM, compound 1 µM) 28.1%; (compound 0.0316 µM) 71.5% [middle of 13 runs]; (compound 0.1 µM, compound 0.00316 µM) 54.4%. Further, the viability, T/C is 52.5% (compound 0.1 µM, compound 0.01 µM); 56.5% (compound 0.1 µM, compound 0.0316 µM); 41.4% (compound 0.1 µM, compound 0.316 µM); 30.8% (compound 0.1 µM, compound 1 µM); 53.1% [middle of 13 runs] (compound 0.1 µM); 40.9% (compound 0.316 µM, compound 0.00316 µM). Also, the viability, T/C is 38.6% (compound 0.316 µM, compound 0.01 µM); 43.2% (compound 0.316 µM, compound 0.0316 µM); 38.7% (compound 0.316 µM, compound 0.1 µM); 31.3% (compound 0.316 µM, compound 1 µM); 40.2% [middle of 13 runs] (compound 0.316 µM); 31.1% (compound 1 µM, compound 0.00316 µM). Besides, the viability, T/C (compound 1 µM, compound 0.01 µM) is 35.5%; the viability, T/C (compound 1 µM, compound 0.0316 µM) was 31.5%; the viability, T/C (compound 1 µM, compound 0.1 µM) is 30.9%; the viability, T/C (compound 1 µM, compound 0.316 µM) was 33.1%; the viability, T/C (compound 1 µM) is 34% [middle of 13 runs]. The 50% inhibitory concentration (IC50) is, setting by setting: (compound alone, run of 06/10/2024) 148 nM [middle of 8 runs]; (curve of compound) 144 nM [middle of 4 runs].
Take `C=CC(=O)Nc1cc(Nc2nccc(-c3cn(C)c4ccccc34)n2)c(OC)cc1N(C)CCN(C)C`: the viability, T/C was 102% (2×) and 95.4% and 104% (compound 0.00316 µM); 96.2% [middle of 4 runs] (compound 0.01 µM); 100% [middle of 4 runs] (compound 0.1 µM); 70.7% [middle of 4 runs] (compound 0.316 µM); 36% [middle of 4 runs] (compound 1 µM). The IC50 (curve of compound) is 633 nM [middle of 4 runs].
For the molecule `CC(C)n1nc(-c2ccc3oc(N)nc3c2)c2c(N)ncnc21`, the viability, T/C runs as follows: (compound 0.000316 µM) 106% [middle of 4 runs]; (compound 0.001 µM) 90.9% [middle of 4 runs]; (compound 0.00316 µM) 93.6% [middle of 4 runs]; (compound 0.01 µM) 96.8% [middle of 4 runs]; (compound 0.0316 µM) 79.8% [middle of 4 runs]; (compound 0.1 µM) 78.4% (2×) and 86.4% and 72.6%. For the same molecule, under “curve of compound”, the pIC50 is under 7.00.
On to `CC1(C)CCC(Nc2ncc(C(F)(F)F)c(-c3c[nH]c4c(P(C)(C)=O)c(C#N)ccc34)n2)CN1` (centres undefined), for which the viability, T/C reads like this: (compound 0.000949 µM) 105% [middle of 4 runs]; (compound 0.003 µM) 105% (2×) and 98.6% and 96.4%; (compound 0.00949 µM) 106% [middle of 4 runs]; (compound 0.03 µM) 107% (2×) and 109% and 99.9%; (compound 0.0949 µM) 94.4% [middle of 4 runs]; (compound 0.3 µM) 86.1% [middle of 4 runs]. In addition, for the setting “curve of compound”, the pIC50 is under 6.52.
For the molecule `CCN1CCN(Cc2ccc(Nc3ncc(F)c(-c4cc(F)c5nc(C)n(C(C)C)c5c4)n3)nc2)CC1`, the viability, T/C was 103% [middle of 4 runs] (compound 0.00316 µM), 99.4% [middle of 4 runs] (compound 0.01 µM), 96.8% [middle of 4 runs] (compound 0.0316 µM) and 97.3% [middle of 4 runs] (compound 0.1 µM). In addition, the negative-log IC50 (pIC50) (curve of compound) was under 6.00.
In the case of `CCc1c2c(nc3ccc(O)cc13)-c1cc3c(c(=O)n1C2)COC(=O)[C@]3(O)CC`, the viability, T/C (compound 0.000949 µM) was 104% [middle of 4 runs]; the viability, T/C (compound 0.003 µM) is 97.8% [middle of 4 runs]; the viability, T/C (compound 0.00949 µM) is 92.5% [middle of 4 runs]; the viability, T/C (compound 0.03 µM) was 69% [middle of 4 runs]; the viability, T/C (compound 0.3 µM) is 49.5% [middle of 4 runs]. Moreover, under “curve of compound”, the pIC50 was 7.31 and < 6.52 and 7.37.
For the molecule `CCn1c(-c2cc(N3CCN(C)CC3)cnc2C(C)OC)c2c3cc(ccc31)-c1csc(n1)CC(NC(=O)C1CC1C)C(=O)N1CCCC(N1)C(=O)OCC(C)(C)C2` (centres undefined), the viability, T/C (compound 0.000949 µM) was 93.1% [middle of 8 runs]; the viability, T/C (compound 0.003 µM) is 86.4% [middle of 8 runs]; the viability, T/C (compound 0.03 µM) is 56.8% [middle of 8 runs]; the viability, T/C (compound 0.0949 µM) was 23.6% [middle of 8 runs]; the viability, T/C (compound 0.3 µM) was 14.1% [middle of 8 runs]. Moreover, the IC50 (compound alone, run of 05/20/2024) was 35 nM [middle of 8 runs].
As to `CCn1c(-c2cccnc2C(C)OC)c2c3cc(ccc31)N1CCOC(CC(NC(=O)C(C(C)C)N(C)C(=O)C3(F)CCN(C(=O)C#CC(C)(C)N(C)C)CC3)C(=O)N3CCCC(N3)C(=O)OCC(C)(C)C2)C1` (centres undefined), the viability, T/C by setting is: (compound 0.000949 µM) 78.5% [middle of 8 runs]; (compound 0.003 µM) 63.4% [middle of 8 runs]; (compound 0.00949 µM) 47.8% [middle of 8 runs]; (compound 0.03 µM) 43.1% [middle of 8 runs]; (compound 0.0949 µM) 41.6% [middle of 8 runs]; (compound 0.3 µM) 35.3% [middle of 8 runs].
Turning to `Nc1ccn(C2OC(CO)C(O)C2(F)F)c(=O)n1` (centres undefined), the viability, T/C is, setting by setting: (compound 0.00316 µM) 80.7% and 103% (2×) and 107%; (compound 0.01 µM) 96.2% [middle of 4 runs]; (compound 0.0316 µM) 78.8% [middle of 4 runs]; (compound 1 µM) 49.4% [middle of 4 runs].
`O=C(c1ccc(F)c(F)c1Nc1ccc(I)cc1F)N1CC(O)([C@@H]2CCCCN2)C1`: the viability, T/C by setting is: (compound 0.00316 µM) 103% [middle of 4 runs]; (compound 0.0316 µM) 97.5% [middle of 4 runs]; (compound 0.1 µM) 82.3% [middle of 4 runs]; (compound 0.316 µM) 21.8% [middle of 4 runs]; (compound 1 µM) 3.22% [middle of 4 runs]. Further, the IC50 (curve of compound) was 190 nM [middle of 4 runs].

For the origin of these results see PubChem BioAssay AID2060891 (Molecular Pharmacology Branch, DTP, NCI, 2025).
